# According to ChEMBL document CHEMBL5576045, “M1/M4 receptors as potential therapeutic treatments for schizophrenia: A comprehensive study” (Bioorg Med Chem, 2024):
# Biological target: T1, Muscarinic acetylcholine receptor M4 (Homo sapiens) (UniProt P08173)
# T1 sequence (whole entry): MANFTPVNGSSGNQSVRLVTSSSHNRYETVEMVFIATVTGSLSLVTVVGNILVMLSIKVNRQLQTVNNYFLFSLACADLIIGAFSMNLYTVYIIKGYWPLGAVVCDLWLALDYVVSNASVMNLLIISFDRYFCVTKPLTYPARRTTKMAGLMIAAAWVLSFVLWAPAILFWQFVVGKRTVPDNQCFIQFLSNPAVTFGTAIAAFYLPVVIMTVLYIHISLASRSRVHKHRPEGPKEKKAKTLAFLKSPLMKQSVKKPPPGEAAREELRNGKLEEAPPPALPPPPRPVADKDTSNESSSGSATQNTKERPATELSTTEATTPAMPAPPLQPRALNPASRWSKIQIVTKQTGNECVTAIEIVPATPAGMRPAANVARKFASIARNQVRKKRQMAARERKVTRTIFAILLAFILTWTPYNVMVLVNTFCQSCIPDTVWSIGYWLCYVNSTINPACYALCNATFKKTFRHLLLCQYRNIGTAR
# Test: Binding affinity to M4 receptor (unknown origin) assessed as fold change in presence of acetylcholine
compound,measurement,value
CC1=C(CCO)SC2=Nc3nc(C)ncc3CN21,fold change (FC),3
